Assay results as given in US20180333379A1 (priority 2018, published 2018).

Columns and labels:
[1] = cited from earlier work
[2] = molecular target: T1, β-amyloid peptide(1-40) (Homo sapiens, UniProt P05067); conditions: cited from earlier work
T1 construct: when incubated with β-amyloid peptide(1-40); (Park, Kim, Son, & Yang, 2009)

[3] = tested on: neurons; conditions: cited from earlier work
[4] = 280-310 milliosmoles per liter, pH 6-8, animal preparation; cited from earlier work
[5] = molecular target: T2, β-2-microglobulin aggregates (Homo sapiens, UniProt P61769); experiment: Citrate treatment of β-2-microglobulin aggregates (thioflavin T fluorescence microscopy); assay type: biochemical; conditions: 2 weeks, thioflavin T stain
T2 construct: purchased Lee Biosolutions, Maryland Heights, Mo
Procedure: (§1) In the following experiments, the concentration of thioflavin T was thirty micromolar in phosphate buffered saline (PBS), and the staining time was five minutes.
(§2) In the following experiments, an […] observer interpreted fluorescence. Interpretation of microscopic fluorescence intensity may be subject to bias. Staining times and washes were controlled.
One milliliter of β-2-microglobulin (Lee Biosolutions, Maryland Heights, Mo.) at a concentration of 1 mg/0.5 ml were mixed with two milliliters of 10 mM calcium chloride in normal saline at 37° C. for three weeks, and a precipitate formed. […] The precipitate was aspirated and stained with 10 microliters of thioflavin T, washed twice with phosphate bufferd saline (PBS), and each sample was observed under an epifluorescent microscope with B2 filter (excitation filter, 450-490 nm; barrier filter, 520 nm). (Table 1)

[6] = molecular target: T3, amyloid β peptide(1-40) aggregates (Homo sapiens, UniProt P05067); experiment: Citrate treatment of amyloid β peptide(1-40) aggregates (thioflavin T fluorescence microscopy); assay type: biochemical; conditions: 48 hours, 37° C.
T3 construct: amyloid β peptide(1-40) (Abcam, Cambridge, United Kingdom); purchased Abcam, Cambridge, United Kingdom
Procedure: as §1, §2
A precipitate formed and the sample was centrifuged at 1500 rpm for five minutes. […] Then, five microliters of thioflavin T were added to each sample, and after five minutes, the samples were centrifuged at 1500 rpm for five minutes and washed twice with PBS. Aggregates in the micro centrifuge tubes were aspirated and observed under an epifluorescent microscope with B2 filter. (Table 3)

[7] = molecular target: alpha synuclein (Homo sapiens, UniProt P37840); conditions: 10 mM calcium chloride in PBS, 37° C., four weeks
Procedure: Five hundred micrograms of alpha synuclein (rPeptide, LLC, Athens, Ga.) was dissolved in 400 microliters of 10 mM calcium chloride in PBS and incubated at 37° C. for four weeks.

T3 sequence (P05067 672-711 limits assumed): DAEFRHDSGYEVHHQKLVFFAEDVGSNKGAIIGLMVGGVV
T2 sequence (P61769 21-119): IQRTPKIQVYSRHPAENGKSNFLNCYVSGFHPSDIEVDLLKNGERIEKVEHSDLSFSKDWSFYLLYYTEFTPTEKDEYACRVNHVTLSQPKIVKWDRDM
T1 sequence (P05067 672-711 limits assumed): as the sequence (P05067 672-711 limits assumed) above

O=C(O)CC(O)(CC(=O)O)C(=O)O [Citrate]
Blood brain barrier crossing ([1]; in vivo): freely crosses the blood brain barrier | Cerebral spinal fluid to plasma concentration of citrate ([1]; in vivo): approximately two-three to one | Average CSF concentration ([1]; normal volunteers): 0.18 mM | Average plasma citrate concentration ([1]; normal volunteers): 0.09 mM | CSF citrate concentration ([1]; patients with cerebrovascular disorders): ≤ 0.3 mM | Formation of amyloid-like aggregates [2]: inhibit formation of amyloid-like aggregates | Protection of neurons from apoptotic effects of β-amyloid peptide(1-40) [3]: protect neurons from the apoptotic effects

O=C([O-])CC(O)(CC(=O)[O-])C(=O)[O-].[Na+].[Na+].[Na+] [Sodium citrate, sodium citrate]
Effect on vertebral bone weight [4]: decreased vertebral bone weight | Effect on weight of ligamentum flavum, dura mater, and spinal cord [4]: minimal effect | Presence of fluorescent fibrils ([5]; sodium citrate 0.01 mM): Present | Presence of fluorescent fibrils ([5]; sodium citrate 0.1 mM): Present | Presence of fluorescent fibrils ([5]; sodium citrate 10 mM): Absent | Presence of fluorescent fibrils ([5]; sodium citrate 100 mM): Absent | Presence of fluorescent fibrils ([5]; sodium citrate 1M): Present | Thioflavin T fluorescence ([6]; sodium citrate 0.01 mM in PBS): Present | Thioflavin T fluorescence ([6]; sodium citrate 0.10 mM in PBS): Present | Thioflavin T fluorescence ([6]; sodium citrate 1.00 mM in PBS): Minimally present | Thioflavin T fluorescence ([6]; sodium citrate 10.00 mM in PBS): Absent

[Ca+2].[Cl-].[Cl-] [calcium chloride]
Precipitate formation [7]: No precipitate formed
